In brackets after ≈: the same amount, converted by molar mass. Each block holds one molecule with its values, some of them ahead of it.
Legend:
Type in all cases: physicochemical
[1] = Solubility in isopropanol
[2] = Piperazine levels upon storage
[3] = Dynamic vapor sorption (DVS) isothermal plot of PMEC salt forms; conditions: FIG. 1; for DVS weight increase onset: relative humidity at onset of weight increase
Procedure: The DVS weight increase onset for each salt was measured as noted—35% relative humidity (RH) for the hemi-sulfate; 50% RH for the acetate; and 65% RH for the phosphate hydrate. The phosphate hydrate is termed phosphate or hemi-phosphate and the hemi-sulfate is termed sulfate or hemi-sulfate in the figure.

Compound: COC(=O)N1CCNCC1 [PMEC freebase, methyl piperazine-1-carboxylate]
piperazine levels upon storage ([2]; storage at 25° C.): up to 18 LC area %

Compound: COC(=O)N1CCNCC1 [PMEC phosphate hydrate, methyl piperazine-1-carboxylate]
hygroscopicity ([3]; compared with the sulfate and acetate salts): less hygroscopic than the corresponding sulfate and acetate salt | DVS weight increase onset [3]: 65 % RH | piperazine levels upon storage ([2]; upon storage, level <0.4 GC area %): do not increase upon storage

The remaining lines, values ahead:

solubility in isopropanol ([1]; 20° C.): about 10 mg/mL | solubility ([1]; 20 °C, organic solvent or mixture): ~12 mg/mL (≈ 29.9 mM)
Compound: COC(=O)N1CCN(Cc2cccc(NC(=O)Nc3ccc(C)nc3)c2F)CC1 [omecamtiv mecarbil]

DVS weight increase onset [3]: 35 % RH
Compound: COC(=O)N1CCNCC1 [hemi-sulfate, methyl piperazine-1-carboxylate]

DVS weight increase onset [3]: 50 % RH
Compound: COC(=O)N1CCNCC1 [acetate, methyl piperazine-1-carboxylate]

Source: patent US12269811B2, “Synthesis of omecamtiv mecarbil” (Amgen Inc., priority 2017, dated 2025)
